In patent US10800816B2 (Baxalta GmbH, priority 2012, dated 2020):
Where a SMILES comes first, the peptide text is derived from it. Bridges are numbered along the chain shown (N, C = ends). [ ]: non-standard residue; d: D form. The star is where a group is joined. Bta = N[C@@H](Cc1csc2ccccc12)C(=O)O; Tle = CC(C)(C)[C@H](N)C(=O)O; hCys = N[C@@H](CCS)C(=O)O; Hexanoyl = CCCCCC(=O)*; Aib = CC(C)(N)C(=O)O; Acm = CC(=O)NC*; Sar = CNCC(=O)O

Tests used:
[1] = test system: TFPI; assay: % Inhibition @ 2.5µM
[2] = test system: TFPI; assay: % Inhibition @ 0.63µM
[3] = test system: TFPI; assay: FXa Inhibition assay | EC50 (µM)
[4] = mouse, plasma, 24 h
[5] = in vitro; conditions: human, plasma
[6] = test system: TFPI; assay: Extrinsic Tenase Inhibition assay | % Inhibition @ 2.5μM
[7] = test system: TFPI; assay: % Inhibition @ 2.5µM; remark: listed apart in the source
[8] = FIGURE 78X
[9] = test system: TFPI; assay: Progress Curves of Inhibition of FXa | % Inhibit (2.5μM)
Procedure: Head of the field: Progress Curves of Inhibition of FXa | % Inhibit (2.5μM)

[10] = test system: TFPI; assay: % Inhibition @ 0.63µM; remark: listed apart in the source

Ac-FQSKGNVFVHGYFERLRAKL-NH2 (SEQ ID NO: 28) [JBT0473]
% Inhibition @ […] [1]: 45% | % Inhibition @ […] [2]: 31% | EC50 [3]: 250 nM

CCCCCC(=O)N[C@@H](Cc1ccccc1)C(=O)N[C@@H](CCC(N)=O)C(=O)N[C@@H](CO)C(=O)N[C@@H](CCCCN)C(=O)N1CCC[C@@H]1C(=O)N[C@@H](CSCNC(C)=O)C(=O)N[C@H](C(=O)N[C@@H](Cc1cnc[nH]1)C(=O)N[C@H](C(=O)N[C@@H](CC(=O)O)C(=O)N[C@H](C)C(=O)N[C@@H](Cc1ccc(O)cc1)C(=O)N[C@@H](Cc1ccccc1)C(=O)N[C@@H](CCC(=O)O)C(=O)N[C@@H](CCCNC(=N)N)C(=O)N[C@@H](CC(C)C)C(=O)NC(C)(C)C(=O)N[C@@H](C)C(=O)N[C@@H](CCCCN)C(=O)N[C@@H](CC(C)C)C(N)=O)C(C)(C)C)C(C)C [JBT2528, Hex-FQSKp-C(Acm)-VH-Tle-DaYFERL-Aib-AKL-NH2] (Hexanoyl-FQSK[dP]C(Acm)VH[Tle]D[dA]YFERL[Aib]AKL-NH2)
percentage of initial amount of peptide remaining [4]: 35% | remaining at 24 h [5]: 93%

CC(=O)N[C@@H](Cc1ccccc1)C(=O)N[C@@H](CCC(N)=O)C(=O)N[C@@H](CO)C(=O)N[C@@H](CCCCN)C(=O)N1CCC[C@@H]1C(=O)N[C@@H](CC(N)=O)C(=O)N[C@H](C(=O)N[C@@H](Cc1c[nH]cn1)C(=O)N[C@H](C(=O)N[C@@H](CC(=O)O)C(=O)N[C@H](C)C(=O)N[C@@H](Cc1ccc(O)cc1)C(=O)N[C@@H](Cc1ccccc1)C(=O)N[C@@H](CCC(=O)O)C(=O)N[C@@H](CCCNC(=N)N)C(=O)N[C@@H](CC(C)C)C(=O)NC(C)(C)C(=O)N[C@@H](C)C(=O)N[C@@H](CCCCN)C(=O)N[C@@H](CC(C)C)C(N)=O)C(C)C)C(C)C [JBT2414] (Ac-FQSK[dP]NVHVD[dA]YFERL[Aib]AKL-NH2)
remaining at 24 h [5]: 100%

Ac-SFYKWF[CGMRDMKGTMSC]VWVKF-NH2 (SEQ ID NO:1010) [JBT1437]
Extrinsic Tenase Inhibition assay | % Inhibition @ […] [6]: 53%

Ac-FQSKGNVFLFGYFERLRAKL-NH2 (SEQ ID NO: 694) [JBT0658]
% Inhibition @ […] [7]: 6%

Ac-FQSKGNVFVEGYFERLRAKL-NH2 (SEQ ID NO: 30) [JBT0475]
% Inhibition @ […] [1]: 50% | % Inhibition @ […] [2]: 37% | EC50 [3]: 250 nM

(Ac-FQSKpNVHVDGYFERL-Aib-AKLC-NH2)2-M2TriO [JBT00002522]
24 h Human Plasma Stability | Mean Remaining [%] [8]: 46.90% | 24 h Mouse Plasma Stability | Mean Remaining [%] [8]: 18.05%

Ac-FQSKDNVFVTGYFERLRAKL-NH2 (SEQ ID NO: 33) [JBT0478]
% Inhibition @ […] [1]: 39% | % Inhibition @ […] [2]: 21% | EC50 [3]: 760 nM

CC(=O)N[C@@H](Cc1ccccc1)C(=O)N[C@@H](CCC(N)=O)C(=O)N[C@@H](CO)C(=O)N[C@@H](CCCCN)C(=O)N1CCC[C@@H]1C(=O)N[C@@H](CC(N)=O)C(=O)N[C@H](C(=O)N[C@@H](Cc1c[nH]cn1)C(=O)N[C@H](C(=O)N1CCC[C@H]1C(=O)N[C@@H]1CSSCC[C@@H](C(=O)N[C@@H](CCCNC(=N)N)C(=O)N[C@@H](CC(C)C)C(=O)NC(C)(C)C(=O)N[C@@H](C)C(=O)N[C@@H](CCCCN)C(=O)N[C@@H](CC(C)C)C(N)=O)NC(=O)[C@H](Cc2csc3ccccc23)NC(=O)[C@H](Cc2ccc(O)cc2)NC1=O)C(C)C)C(C)C [JBT00002518, Ac-FQSKpNVHVP[cY-Bta--Hcy-]RL-Aib-AKL-NH2] (Ac-FQSK[dP]NVHVP[dC]Y[Bta][hCys]RL[Aib]AKL-NH2; disulfide 11-14)
24 h Human Plasma Stability | Mean Remaining [%] [8]: 77.70% | 24 h Mouse Plasma Stability | Mean Remaining [%] [8]: 28.30%

Ac-FQSKGNVFVDGYFDRLRAKL-NH2 (SEQ ID NO: 31) [JBT0476]
% Inhibition @ […] [1]: 49% | % Inhibition @ […] [2]: 38% | EC50 [3]: 220 nM

Ac-KRYKWF[CGMRDMKGTMSC]VWVKF-NH2 (SEQ ID NO: 1016) (Ac-KRYKWFCGMRDMKGTMSCVWVKF-NH2; disulfide 7-18; SMILES CSCC[C@@H]1NC(=O)CNC(=O)[C@@H](NC(=O)[C@H](Cc2ccccc2)NC(=O)[C@H](Cc2c[nH]c3ccccc23)NC(=O)[C@H](CCCCN)NC(=O)[C@H](Cc2ccc(O)cc2)NC(=O)[C@H](CCCNC(=N)N)NC(=O)[C@H](CCCCN)NC(C)=O)CSSC[C@@H](C(=O)N[C@H](C(=O)N[C@@H](Cc2c[nH]c3ccccc23)C(=O)N[C@H](C(=O)N[C@@H](CCCCN)C(=O)N[C@@H](Cc2ccccc2)C(N)=O)C(C)C)C(C)C)NC(=O)[C@H](CO)NC(=O)[C@H](CCSC)NC(=O)[C@H]([C@@H](C)O)NC(=O)CNC(=O)[C@H](CCCCN)NC(=O)[C@H](CCSC)NC(=O)[C@H](CC(=O)O)NC(=O)[C@H](CCCNC(=N)N)NC1=O) [JBT1474]
Extrinsic Tenase Inhibition assay | % Inhibition @ […] [6]: 59%

Ac-SRYKWF[CGMRDMKGTLSC]VWVKF-NH2 (SEQ ID NO:1064) [JBT1506]
Extrinsic Tenase Inhibition assay | % Inhibition @ […] [6]: 45%

Ac-KKVQLHVSKRSKEMALARLYYKTSKK- NH2 (SEQ ID NO: 2301) (Ac-KKVQLHVSKRSKEMALARLYYKTSKK-NH2) [JBT0230]
Progress Curves of Inhibition of FXa | % Inhibit ([…]) [9]: 0%

Ac-FQSKGNVFVNGYFERLRAKL-NH2 (SEQ ID NO: 27) [JBT0472]
% Inhibition @ […] [1]: 49% | % Inhibition @ […] [2]: 34% | EC50 [3]: 370 nM

CC(=O)N[C@@H](Cc1ccccc1)C(=O)N[C@@H](CCC(N)=O)C(=O)N[C@@H](CO)C(=O)N[C@@H](CCCCN)C(=O)N(C)CC(=O)N[C@@H](CC(N)=O)C(=O)N[C@H](C(=O)N[C@@H](Cc1ccccc1)C(=O)N[C@H](C(=O)N[C@@H](CC(=O)O)C(=O)NCC(=O)N[C@@H](Cc1ccc(O)cc1)C(=O)N[C@@H](Cc1ccccc1)C(=O)N[C@@H](CCC(=O)O)C(=O)N[C@@H](CCCNC(=N)N)C(=O)N[C@@H](CC(C)C)C(=O)NC(C)(C)C(=O)N[C@@H](C)C(=O)N[C@@H](CCCCN)C(=O)N[C@@H](CC(C)C)C(N)=O)C(C)C)C(C)C [JBT1584]
Plasma Stability (half life in minutes) human: >2 h

CC(=O)N[C@@H](Cc1ccccc1)C(=O)N[C@@H](CCC(N)=O)C(=O)N[C@@H](CO)C(=O)N[C@@H](CCCCN)C(=O)N(C)CC(=O)N[C@@H](CC(N)=O)C(=O)N[C@H](C(=O)N[C@@H](Cc1ccccc1)C(=O)N[C@H](C(=O)N[C@@H](CC(=O)O)C(=O)NCC(=O)N[C@@H](Cc1ccc(O)cc1)C(=O)N[C@@H](Cc1ccccc1)C(=O)N[C@@H](CCC(=O)O)C(=O)N[C@@H](CCCNC(=N)N)C(=O)N[C@@H](CC(C)C)C(=O)N[C@@H](CCCNC(=N)N)C(=O)N[C@@H](C)C(=O)N[C@@H](CCCCN)C(=O)N[C@@H](CC(C)C)C(N)=O)C(C)C)C(C)C [JBT0717] (Ac-FQSK[Sar]NVFVDGYFERLRAKL-NH2)
Plasma Stability (half life in minutes) human: >2 h

Ac-FQSK-Nmg-AVFVFGYFARLRAKL-NH2 (SEQ ID NO: 206) (Ac-FQSK[Sar]AVFVFGYFARLRAKL-NH2; SMILES CC(=O)N[C@@H](Cc1ccccc1)C(=O)N[C@@H](CCC(N)=O)C(=O)N[C@@H](CO)C(=O)N[C@@H](CCCCN)C(=O)N(C)CC(=O)N[C@@H](C)C(=O)N[C@H](C(=O)N[C@@H](Cc1ccccc1)C(=O)N[C@H](C(=O)N[C@@H](Cc1ccccc1)C(=O)NCC(=O)N[C@@H](Cc1ccc(O)cc1)C(=O)N[C@@H](Cc1ccccc1)C(=O)N[C@@H](C)C(=O)N[C@@H](CCCNC(=N)N)C(=O)N[C@@H](CC(C)C)C(=O)N[C@@H](CCCNC(=N)N)C(=O)N[C@@H](C)C(=O)N[C@@H](CCCCN)C(=O)N[C@@H](CC(C)C)C(N)=O)C(C)C)C(C)C) [JBT0681]
% Inhibition @ […] [7]: 52% | % Inhibition @ […] [10]: 52%

Ac-SRYKWF[CGMKDMKGTMSC]VWVKF-NH2 (SEQ ID NO: 1017) (Ac-SRYKWFCGMKDMKGTMSCVWVKF-NH2; disulfide 7-18; SMILES CSCC[C@@H]1NC(=O)CNC(=O)[C@@H](NC(=O)[C@H](Cc2ccccc2)NC(=O)[C@H](Cc2c[nH]c3ccccc23)NC(=O)[C@H](CCCCN)NC(=O)[C@H](Cc2ccc(O)cc2)NC(=O)[C@H](CCCNC(=N)N)NC(=O)[C@H](CO)NC(C)=O)CSSC[C@@H](C(=O)N[C@H](C(=O)N[C@@H](Cc2c[nH]c3ccccc23)C(=O)N[C@H](C(=O)N[C@@H](CCCCN)C(=O)N[C@@H](Cc2ccccc2)C(N)=O)C(C)C)C(C)C)NC(=O)[C@H](CO)NC(=O)[C@H](CCSC)NC(=O)[C@H]([C@@H](C)O)NC(=O)CNC(=O)[C@H](CCCCN)NC(=O)[C@H](CCSC)NC(=O)[C@H](CC(=O)O)NC(=O)[C@H](CCCCN)NC1=O) [JBT1481]
Extrinsic Tenase Inhibition assay | % Inhibition @ […] [6]: 55%
